Laboratory results reported in patent publication US7160911B2, “Diarylcycloalkyl derivatives, process for their preparation and their use as pharmaceuticals” (Sanofi-Aventis Deutschland GmbH, priority 2003, dated 2007).
pEC50: −log10 of the molar value.

Molecular target: T1, human PPARalpha (Homo sapiens, UniProt Q07869)
T1 construct: amino acids S167–Y468; expressed in transfected cells; host or cells: HEK (human embryo kidney) cells, stably transfected with the pcDNA3 construct
T1 sequence (Q07869 167-468): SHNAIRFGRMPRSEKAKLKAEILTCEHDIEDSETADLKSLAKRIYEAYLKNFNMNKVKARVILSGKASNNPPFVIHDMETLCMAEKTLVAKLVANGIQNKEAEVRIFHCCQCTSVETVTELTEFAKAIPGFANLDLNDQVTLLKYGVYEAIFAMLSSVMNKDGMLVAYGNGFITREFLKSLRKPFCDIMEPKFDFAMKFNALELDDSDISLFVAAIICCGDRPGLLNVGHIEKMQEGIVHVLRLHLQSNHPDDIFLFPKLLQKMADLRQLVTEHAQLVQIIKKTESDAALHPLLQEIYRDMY
Test: Cellular PPARalpha assay (stably transfected HEK luciferase reporter cell line)
Format: cell-based
Settings: PPARalpha reporter cell line (HEK, GR-GAL4-humanPPARalpha-LBD)
Procedure: Determination of EC50 Values of PPAR Agonists in the Cellular PPARalpha Assay
The potency of substances which bind to human PPARalpha and activate in an agonistic manner is analyzed using a stably transfected HEK cell line (HEK=human embryo kidney) which is referred to here as PPARalpha reporter cell line. It contains two genetic elements, a luciferase reporter element (pdeltaM-GAL4-Luc-Zeo) and a PPARalpha fusion protein (GR-GAL4-humanPPARalpha-LBD) which mediates expression of the luciferase reporter element depending on a PPARalpha ligand. The stably and constitutively expressed fusion protein GR-GAL4-humanPPARalpha-LBD binds in the cell nucleus of the PPARalpha reporter cell line via the GAL4 protein portion to the GAL4 DNA binding motifs 5′-upstream of the luciferase reporter element which is integrated in the genome of the cell line.
There is only little expression of the luciferase reporter gene without addition of a PPARalpha ligand if fatty acid-depleted fetal calf serum (cs-FCS) is used in the assay. PPARalpha ligands bind and activate the PPARalpha fusion protein and thereby bring about expression of the luciferase reporter gene. The luciferase which is formed can be detected by means of chemiluminescence via an appropriate substrate.
The PPARalpha reporter cell line was prepared in 2 stages. Firstly, the luciferase reporter element was constructed and stably transfected into HEK cells. For this purpose, five binding sites of the yeast transcription factor GAL4 (each 5′-CGGAGTACTGTCCTCCGAG-3′) (SEQ ID No. 1) were cloned in 5′-upstream of a 68 bp-long minimal MMTV promoter (Genbank Accession # V01175). The minimal MMTV promoter section contains a […] and a TATA element in order to enable efficient transcription by RNA polymerase II. The cloning and sequencing of the GAL4-MMTV construct took place in analogy to the description of Sambrook J. et. al. (Molecular cloning, Cold Spring Harbor Laboratory Press, 1989). Then the complete Photinus pyralis gene (Genbank Accession # M15077) was cloned in 3′-downstream of the GAL4-MMTV element. After sequencing, the luceriferase reporter element consisting of five GAL4 binding sites, MMTV promoter and luciferase gene was recloned into a plasmid which confers zeocin resistance in order to obtain the plasmid pdeltaM-GAL4-Luc-Zeo. This vector was transfected into HEK cells in accordance with the statements in Ausubel, F. M. et al. (Current protocols in molecular biology, Vol. 1–3, John Wiley & Sons, Inc., 1995).
In a second step, the PPARalpha fusion protein (GR-GAL4-humanPPARalpha-LBD) was introduced into the stable cell clone described. For this purpose, initially the cDNA coding for the N-terminal 76 amino acids of the glucocorticoid receptor (Genbank Accession # P04150) was linked to the cDNA section coding for amino acids 1–147 of the yeast transcription factor GAL4 (Genbank Accession # P04386). The cDNA of the ligand-binding domain of the human PPARalpha receptor (amino acids S167–Y468; Genbank Accession # S74349) was cloned in at the 3′-end of this GR-GAL4 construct. The fusion construct prepared in this way (GR-GAL4-humanPPARalpha-LBD) was recloned into the plasmid pcDNA3 (from Invitrogen) in order to enable constitutive expression therein by the cytomegalovirus promoter. This plasmid was linearized with a restriction endonuclease and stably transfected into the previously described cell clone containing the luciferase reporter element. The finished PPARalpha reporter cell line which contains a luciferase reporter element and constitutively expresses the PPARalpha fusion protein (GR-GAL4-human PPARalpha-LBD) was isolated by selection with zeocin (0.5 mg/ml) and G418 (0.5 mg/ml).
The activity of PPARalpha agonists is determined in a 3-day assay which is described below: […]

| Compound | pEC50 |
| --- | --- |
| Cc1cccc(CO[C@@H]2CCC[C@H](OCc3nc(-c4ccc5c(c4)OCCO5)oc3C)C2)c1C(=O)O [Example 3] | 9.70 |
| Cc1ccc(-c2nc(CO[C@H]3CCC[C@@H](OCc4cccc(C)c4C(=O)O)C3)c(C)o2)o1 [Example 4, 2-methyl-6-{(1R,3S)-3-[5-methyl-2-(5-methylfuran-2-yl)oxazol-4-ylmethoxy]cyclohexyloxy-methyl}benzoic acid] | 9.22 |
| COCCOc1cc(-c2nc(CO[C@H]3CCC[C@@H](OCc4cccc(C)c4C(=O)O)C3)c(C)o2)cc(C(F)(F)F)c1 [Example 10] | 9.52 |
| Cc1cccc(CO[C@@H]2CCC[C@H](OCc3coc(C4CCCCC4)n3)C2)c1C(=O)O [Example 13, 2-[(1R,3S)-3-(2-cyclohexyloxazol-4-ylmethoxy)cyclohexyloxymethyl]-6-methylbenzoic acid] | 10.22 |

More lines, now with the values ahead:

| pEC50 | Compound |
| --- | --- |
| 9.70 | Cc1cccc(CO[C@@H]2CCC[C@H](OCc3nc(-c4ccc5ccccc5c4)oc3C)C2)c1C(=O)O [Example 1, 2-methyl-6-[(1R,3S)3-(5-methyl-2-naphthalen-2-yloxazol-4-yl-methoxy)cyclohexyloxymethyl]benzoic acid] |
| 7.57 | Cc1ccc(-c2nc(CO[C@H]3CCC[C@@H](OCc4cccc(C)c4C(=O)O)C3)c(-c3ccccc3)o2)cc1 [Example 11, 2-methyl-6-[(1R,3S)-3-(5-phenyl-2-p-tolyloxazol-4-ylmethoxy)cyclohexyloxy-methyl]benzoic acid] |
| 7.47 | COc1cccc(-c2nc(CO[C@H]3CCC[C@@H](OCc4cccc(C)c4C(=O)O)C3)c(-c3ccccc3)o2)c1 [Example 12, 2-{(1R,3S)-3-[2-(3-methoxyphenyl)-5-phenyloxazol-4-ylmethoxy]cyclohexyloxy-methyl}-6-methylbenzoic acid] |
